The source of these data is ChEMBL document CHEMBL1133830, “Potent, low molecular weight thrombin receptor antagonists” (Bioorg Med Chem Lett, 2001).

Assay [1] addresses T1, Proteinase-activated receptor 1 (Homo sapiens, UniProt P25116).
T1 sequence (P25116 whole entry): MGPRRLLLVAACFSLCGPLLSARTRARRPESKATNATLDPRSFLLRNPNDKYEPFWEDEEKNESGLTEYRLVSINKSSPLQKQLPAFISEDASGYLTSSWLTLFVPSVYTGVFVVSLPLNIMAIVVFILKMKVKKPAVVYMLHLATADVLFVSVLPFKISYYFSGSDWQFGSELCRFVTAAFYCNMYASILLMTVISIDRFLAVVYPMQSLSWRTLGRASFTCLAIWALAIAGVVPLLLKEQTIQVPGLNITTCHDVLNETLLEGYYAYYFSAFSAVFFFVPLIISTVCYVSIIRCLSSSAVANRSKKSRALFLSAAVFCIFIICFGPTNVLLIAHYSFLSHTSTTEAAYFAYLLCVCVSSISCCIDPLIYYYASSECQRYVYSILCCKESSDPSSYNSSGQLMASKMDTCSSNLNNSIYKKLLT
The assay can be described thus: Inhibitory concentration against potent thrombin receptor-1 (PAR-1) on human platelets; Inactive.

Assay [2] is filed under the species Homo sapiens. Kind of assay: Inhibition of human platelet aggregation induced by high affinity thrombin receptor agonist peptide( ha-TRAP). The assay is classed as functional.
Assay [3] has as its target T1, Proteinase-activated receptor 1. Kind of assay: Inhibitory concentration against potent thrombin receptor-1 (PAR-1) on human platelets.
Assay [4] is filed under the species Homo sapiens. The assay can be described thus: Inhibition of human platelet aggregation induced by thrombin. Format: functional.

For the compound `Cc1ccc(C(=O)Cn2c(=O)n(Cc3ccccc3)c3ccccc32)cc1`, the IC50 (commonly the concentration needed to halve the response being measured) in assay [1] is given as “Not Active”.
The same measure, in the same setting: for `O=C(Cn1c(=O)n(Cc2ccccc2)c2ccccc21)c1ccc(Br)cc1` the value was “Not Active”; for `O=C(Cn1c(=O)n(Cc2ccccc2)c2ccccc21)c1ccc(F)cc1`, “Not Active”.
In the case of `Cn1c(=O)n(CC(=O)c2cc(C(C)(C)C)c(O)c(C(C)(C)C)c2)c2ccccc21`, the IC50 result in assay [1] was “Not Active”.
For the compound `Cc1cc(C(=O)Cn2c(=O)n(Cc3ccccc3)c3ccccc32)ccc1Cl`, in assay [1], the IC50 entry is on record as “Not Active”.
As for `Cc1ccc(Cn2c(=N)n(CC(=O)c3cc(C(C)(C)C)c(O)c(C(C)(C)C)c3)c3ccccc32)cc1`, the results for the IC50 (in the assay filed under Homo sapiens [2]; in assay [3]; in the assay filed under Homo sapiens [4]) were 0.575 µM, 0.033 µM and 1.5 µM, respectively.
In the case of `CC(C)(C)c1ccc(Cn2c(=N)n(CC(=O)c3cc(C(C)(C)C)c(O)c(C(C)(C)C)c3)c3ccccc32)cc1`, the midpoint of inhibition in assay [3], the IC50, lay at 0.734 µM.
The same measure, in the same setting: the figure for `CC(C)(C)c1cc(C(=O)Cn2c(N)nc3ccccc32)cc(C(C)(C)C)c1O` is 1.5 µM; for `CCCCCCCn1c(=N)n(CC(=O)c2cc(C(C)(C)C)c(O)c(C(C)(C)C)c2)c2ccccc21` it is 0.964 µM.
For `COc1ccc(OC)c(C(=O)Cn2c(=O)n(Cc3ccccc3)c3ccccc32)c1`, the IC50 entry in assay [1] is recorded as “Not Active”.
Consider `CC(C)(C)c1cc(C(=O)Cn2c(=N)n(CCN3CCOCC3)c3ccccc32)cc(C(C)(C)C)c1O`, for which the IC50 in the assay filed under Homo sapiens [2] is 2 µM; in assay [3], 0.098 µM; in the assay listed under Homo sapiens [4], over 10 µM.
Regarding `Cc1ccc(C(=O)Cn2c(=O)n(Cc3ccccc3)c3ccccc32)c(C)c1`, the IC50 entry in assay [1] is reported as “Not Active”.
As to `CC(C)(C)c1cc(C(=O)Cn2c(=N)n(Cc3ccc(Cl)c(Cl)c3)c3ccccc32)cc(C(C)(C)C)c1O`, in assay [3], the IC50 stood at 1.32 µM.
The same measure, in the same setting: for `Cn1c(=N)n(CC(=O)c2cc(C(C)(C)C)c(O)c(C(C)(C)C)c2)c2ccccc21` the value was 0.9 µM.
Turning to `O=C(Cn1c(=O)n(Cc2ccccc2)c2ccccc21)c1ccc(Cl)cc1Cl`, the IC50 entry in assay [1] was “Not Active”.
For the compound `CCC(=O)c1cc(C(C)(C)C)c(O)c(C(C)(C)C)c1`, the IC50 result in assay [1] is reported as “Not Active”.
Take `CCCCn1c(=N)n(CC(=O)c2cc(C(C)(C)C)c(O)c(C(C)(C)C)c2)c2ccccc21`: the values for the IC50 (in the assay filed under Homo sapiens [2]; in assay [3]; in the assay filed under Homo sapiens [4]) were 0.825 µM, 0.359 µM and 10 µM, respectively.
Compound `CC(C)(C)c1cc(C(=O)Cn2c(=N)n(CCN3CCCCC3)c3ccccc32)cc(C(C)(C)C)c1O` returned an IC50 in assay [3] of 2.87 µM.
For `CC(C)(C)c1cc(C(=O)Cn2c(=N)n(Cc3ccccc3)c3ccccc32)cc(C(C)(C)C)c1O`, the IC50 worked out at 0.265 µM in the assay filed under Homo sapiens [2], 0.065 µM in assay [3] and 0.6 µM in the assay filed under Homo sapiens [4].
As to `N#Cc1ccc(C(=O)Cn2c(=O)n(Cc3ccccc3)c3ccccc32)cc1`, in assay [1], the IC50 result was “Not Active”.
Same read-out and setting: for `O=C(Cn1c(=O)n(Cc2ccccc2)c2ccccc21)c1ccc(O)c(O)c1` the value was “Not Active”.
